Results taken from patent publication EP4745131A1, “PYRIMIDINAMINE NUAK INHIBITOR AS WELL AS PREPARATION METHOD THEREFOR AND USE THEREOF” (Technoderma Medicines Inc., priority 2023, dated 2025).

Legend:
[1] = biological target: T1, NUAK1 (Homo sapiens, UniProt O60285); experiment: Kinase activity assay, P81 filter paper binding hot-spot technique (33P-ATP, CHKtide substrate); type: biochemical; details: final concentration of NUAK1 10 nM; 20 µM CHKtide substrate; 33P-labeled ATP; 2 hours at room temperature; read-out: IC50 (nM) of Test Compounds against NUAK1
T1 sequence (O60285 1-661): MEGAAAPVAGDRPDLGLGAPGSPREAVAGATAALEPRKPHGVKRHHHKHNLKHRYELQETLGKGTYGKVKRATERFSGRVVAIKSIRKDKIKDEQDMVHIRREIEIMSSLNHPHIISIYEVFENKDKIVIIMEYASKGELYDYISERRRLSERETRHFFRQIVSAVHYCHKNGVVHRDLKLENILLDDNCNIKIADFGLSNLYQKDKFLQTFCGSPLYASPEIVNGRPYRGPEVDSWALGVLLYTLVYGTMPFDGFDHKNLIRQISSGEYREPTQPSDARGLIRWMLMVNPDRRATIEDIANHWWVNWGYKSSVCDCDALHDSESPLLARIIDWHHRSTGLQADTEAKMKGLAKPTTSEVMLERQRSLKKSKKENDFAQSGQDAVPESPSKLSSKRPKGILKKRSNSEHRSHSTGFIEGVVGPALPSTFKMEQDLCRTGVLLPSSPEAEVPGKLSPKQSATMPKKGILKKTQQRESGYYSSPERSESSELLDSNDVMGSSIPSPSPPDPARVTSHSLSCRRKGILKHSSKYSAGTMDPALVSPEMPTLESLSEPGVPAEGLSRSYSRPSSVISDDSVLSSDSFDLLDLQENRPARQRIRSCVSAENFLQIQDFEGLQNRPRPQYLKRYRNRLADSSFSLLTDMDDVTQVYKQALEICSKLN
Method: (§1) The inhibitory activity of the pyrimidinamine small molecules involved in the present application against NUAK1 and NUAK2 kinases was determined using a kinase activity assay based on the P81 filter paper binding hot-spot technique (Nat Biotechnol. 2011, 29:1039). A brief description is as follows:
(§2) The assay buffer system contained 20 mM Hepes (pH 7.5), 10 mM MgCl2, 1 mM EGTA, 0.01% Brij35 (L23 polyoxyethylene lauryl ether), 0.02 mg/mL BSA (bovine serum albumin), 0.1 mM Na3VO4, 2 mM DTT, and 1% DMSO.
(§3) • 1. A 20 µM substrate solution was prepared with freshly prepared test buffer and CHKtide peptide fragments (Sanchez Y. Science. 1997, 277: 1497-1501) were used as a substrate. • 2. Kinases were added and mixed gently (a final concentration of NUAK1 was 10 nM; and a final concentration of NUAK2 was 50 nM). • 3. Test compounds dissolved in 100% DMSO were each added to the above kinase reaction mixture solution via Acoustic Droplet Ejection (Echo550; nanoliter) and the mixture was incubated for 5 minutes at room temperature. • 4. ^33P-labeled ATP (a ratio of unlabeled ATP to labeled ATP was 25:1 or 2.5:1) was added. • 5. The mixture was incubated for 2 hours at room temperature. • 6. Kinase activity was tested using the P81 filter paper combined with hotspot technology.
(§4) The IC50 values of the test compounds against NUAK1/NUAK2 were calculated according to the above test. For specific results, see Table 1.
(§5) The IC50 values were calculated by using a formula derived from sigmoidal dose-response curve (variable slope): Y = Bottom + (Top-Bottom)/(1+10^((LogEC50-X)*Slope, where X is the logarithm of compound concentration, Y is the response (inhibition rate of kinase activity), and Y rises from bottom to top along the sigmoidal curve as the concentration increases. Table 1: IC50 (nM) of Test Compounds of the Present Application against NUAK1/NUAK2

[2] = biological target: T2, NUAK2 (Homo sapiens, UniProt Q9H093); experiment: as above; type: biochemical; details: final concentration of NUAK2 50 nM; 20 µM CHKtide substrate; 33P-labeled ATP; 2 hours at room temperature; read-out: IC50 (nM) of Test Compounds against NUAK2
T2 sequence (Q9H093 1-628): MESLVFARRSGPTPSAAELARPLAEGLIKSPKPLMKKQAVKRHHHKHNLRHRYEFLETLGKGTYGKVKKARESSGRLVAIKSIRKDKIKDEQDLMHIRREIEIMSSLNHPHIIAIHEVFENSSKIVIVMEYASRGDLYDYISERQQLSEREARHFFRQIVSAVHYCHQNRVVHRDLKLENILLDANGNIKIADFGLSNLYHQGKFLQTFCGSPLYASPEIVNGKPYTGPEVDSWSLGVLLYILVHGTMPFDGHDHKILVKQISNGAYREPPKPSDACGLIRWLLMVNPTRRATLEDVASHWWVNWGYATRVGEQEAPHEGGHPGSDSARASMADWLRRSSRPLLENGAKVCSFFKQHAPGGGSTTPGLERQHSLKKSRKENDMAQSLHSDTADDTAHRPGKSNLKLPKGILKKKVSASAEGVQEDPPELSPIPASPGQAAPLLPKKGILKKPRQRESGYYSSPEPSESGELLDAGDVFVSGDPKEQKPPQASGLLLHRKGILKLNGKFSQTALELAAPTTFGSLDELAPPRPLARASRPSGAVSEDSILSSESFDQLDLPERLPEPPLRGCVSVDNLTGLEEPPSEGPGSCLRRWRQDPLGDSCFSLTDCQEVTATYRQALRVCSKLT
Method: as §1, §2, §3, §4, §5

Compound | IC50 [1] | IC50 [2]
COc1cc(N2CCN(C)CC2)ccc1Nc1ncc(Cl)c(-n2ccc(C(=O)NCC#N)c2)n1 [TDM-181155, 1-(5-Chloro-2-((2-methoxy-4-(4-methylpiperazin-1-yl)phenyl)amino)pyrimidin-4-yl)-N-(cyanomethyl)-1H-pyrrole-3-carboxamide] | 43 nM | 69 nM
CCCS(=O)(=O)Nc1cnn(-c2nc(Nc3cnn(C4CCNCC4)c3)ncc2Cl)c1 [TDM-181177, N-(1-(5-Chloro-2-(1-(piperidin-4-yl)-1H-pyrazol-4-ylamino)pyrimidin-4-yl)-1H-pyrazol-4-yl)propane-1-sulfonamide] | 9 nM | 72 nM
COc1cc(C2CCN(C)CC2)ccc1Nc1nccc(-n2ccc(C(=O)NCC#N)c2)n1 [TDM-181156, N-(cyanomethyl)-1-(2-((2-methoxy-4-(1-methylpiperidin-4-yl)phenyl)amino)pyrimidin-4-yl)-1H-pyrrole-3-carboxamide] | 607 nM | –
2-(1-(piperidin-4-yl)-1H-pyrazol-4-yl)aminopyrimidin-4-yl)-1H-pyrazol-4-ylpropanesulfonamide [TDM-181135] | 34 nM | 265 nM
CCS(=O)(=O)N1CCC(n2cc(-c3ccnc(Nc4cnn(C5CCNCC5)c4)n3)cn2)C1 (centres unmarked) [TDM-181134, 4-(1-(1-(Ethylsulfonyl)pyrrolidin-3-yl)-1H-pyrazol-4-yl)-N-(1-(piperidin-4-yl)-1H-pyrazol-4-yl)pyrimidin-2-amine] | 122 nM | 622 nM
N#CCNC(=O)c1cnn(-c2ccnc(Nc3cnn(C4CCNCC4)c3)n2)c1 [TDM-181140, N-(Cyanomethyl)-1-(2-((1-(piperidin-4-yl)-1H-pyrazol-4-yl)amino)pyrimidin-4-yl)-1H-pyrazole-4-carboxamide] | 305 nM | 210 nM
CN1CCN(c2ccc(Nc3nccc(-n4ccc(C(=O)NCC#N)c4)n3)cc2)CC1 [TDM-181147, N-(Cyanomethyl)-1-(2-((4-(4-methylpiperazin-1-yl)phenyl)amino)pyrimidin-4-yl)-1H-pyrrole-3-carboxamide] | 19 nM | 77 nM
N#CCNC(=O)c1ccn(-c2ccnc(Nc3ccc(C4CCNCC4)cc3)n2)c1 [TDM-181154, N-(cyanomethyl)-1-(2-((4-(piperidin-4-yl)phenyl)amino)pyrimidin-4-yl)-1H-pyrrole-3-carboxamide] | 58 nM | 239 nM
COc1cc(N2CCN(C)CC2)ccc1Nc1nccc(-n2ccc(C(=O)NCC#N)c2)n1 [TDM-181146, N-(Cyanomethyl)-1-(2-((2-methoxy-4-(4-methylpiperazin-1-yl)phenyl)amino)pyrimidin-4-yl)-1H-pyrrole-3-carboxamide] | 260 nM | 602 nM
N#CCNC(=O)c1ccn(-c2ccnc(Nc3cnn(C4CCNCC4)c3)n2)c1 [TDM-181153, N-(Cyanomethyl)-1-(2-((1-(piperidin-4-yl)-1H-pyrazol-4-yl)amino)pyrimidin-4-yl)-1H-pyrrole-3-carboxamide] | 84 nM | 107 nM
1-(5-chloro-2-((2-methoxy-4-(piperidin-4-yl)phenyl)amino)pyrimidin-4-yl)-N-(cyanomethyl)-1H-pyrrole-3-carboxamide [TDM-181157] | 194 nM | 487 nM
CCCS(=O)(=O)Nc1cnn(-c2nc(Nc3cnc(C4CCNCC4)s3)ncc2Cl)c1 [TDM-181179, N-(1-(5-Chloro-2-((2-(piperidin-4-yl)thiazol-5-yl)amino)pyrimidin-4-yl)-1H-pyrazol-4-yl)propane-1-sulfonamide] | 6 nM | 42 nM
CNC(=O)c1ccn(-c2nc(Nc3ccc(N4CCN(C)CC4)cc3)ncc2Cl)c1 [TDM-181170, 1-(5-Chloro-2-((4-(4-methylpiperazin-1-yl)phenyl)amino)pyrimidin-4-yl)-N-methyl-1H-pyrrole-3-carboxamide] | 14 nM | 78 nM
O=C(Nc1cnn(-c2ccnc(Nc3cnn(C4CCNCC4)c3)n2)c1)[C@@H]1CC1(F)F [TDM-181159, 2,2-Difluoro-N-(1-2-((1-(piperidin-4-yl)-1H-pyrazol-4-ylamino)pyrimidin-4-yl)-1H-pyrazol-4-yl)cyclopropane-1-carboxamide] | 337 nM | 419 nM
CN1CCN(c2ccc(Nc3ncc(Cl)c(-n4ccc(C(=O)NCC5CC5)c4)n3)cc2)CC1 [TDM-181171, 1-(5-Chloro-2-((4-(4-methylpiperazin-1-yl)phenyl)amino)pyrimidin-4-yl)-N-(cyclopropylmethyl)-1H-pyrrole-3-carboxamide] | 9 nM | 50 nM
COc1cc(N2CCN(C)CC2)ccc1Nc1nccc(-n2cc(C(=O)NCC#N)cn2)n1 [TDM-181139, N-(Cyanomethyl)-1-(2-((2-methoxy-4-(4-methylpiperazin-1-yl)phenyl)amino)pyrimidin-4-yl)-1H-pyrazole-4-carboxamide] | 474 nM | 991 nM
COc1cc(C2CCN(C)C2)ccc1Nc1nccc(-n2ccc(C(=O)NCC#N)c2)n1 (centres unmarked) [TDM-181158] | 394 nM | –
CN1CCC(n2cc(Nc3nccc(-c4cnn(C(=O)C5CC5)c4)n3)cn2)CC1 [TDM-181169, Cyclopropyl(4-(2-((1-(1-methylpiperidin-4-yl)-1H-pyrazol-4-yl)amino)pyrimidin-4-yl)-1H-pyrazol-1-yl)methanone] | 209 nM | 495 nM
COc1cc(C2CCNCC2)ccc1Nc1nccc(-n2ccc(C(=O)NCC#N)c2)n1 [TDM-181152, N-(Cyanomethyl)-1-(2-((2-methoxy-4-(piperidin-4-yl)phenyl)amino)pyrimidin-4-yl)-1H-pyrrole-3-carboxamide] | 977 nM | –
